Results taken from patent US9877960B2 (priority 2012, dated 2018).
“Also recorded” adds a separate entry of the source.

How the values were obtained:
[1] = test system: rats with scopolamine-induced impairment of learning; assay: Radial maze test using rats with scopolamine-induced impairment of learning; type: in vivo, rat; settings: 200 mg/kg oral, scopolamine 0.5 mg/kg i.p., 8-direction radial maze
Procedure: Scopolamine is a non-selective competitive antagonist of muscarinic acetylcholine receptors. Laboratory animals with scopolamine-induced impairment of learning are widely used as a memory disorder model.
Using SD male rats which were 7 weeks of age, practice training was conducted while the rats were under food deprivation, and thereafter a main test was conducted.
Food was placed at the end of each arm of an 8-direction radial maze, and an animal was placed on a platform at the center of the maze. Completion of one trial was when the animal finished acquiring food from all arms or when 10 minutes elapsed since the animal was placed on the platform. The training was conducted once a day. “Correct choice” was defined as visiting an unselected arm in the trial, and “wrong choice” was defined as visiting an arm from where food had already been acquired.
2,5-Piperazinedione,3,6-bis(phenylmethyl)-,(3S,6S) was suspended in 0.5% CMC-Na, and 20 mg/kg and 200 mg/kg were orally administered to the rats which attained the standard in the above practice training trials. Ten minutes after the oral administration, 0.5 mg/kg of scopolamine was intraperitoneally administered. Thirty minutes after the intraperitoneal administration of scopolamine, an 8-direction radial maze test was conducted, and the number of wrong choices and the time taken for the […] to acquire all food were counted. […]

mice [2] = assay: Mice micronucleus test; type: in vivo
mice [3] = assay: Single-dose acute toxicity test; type: in vivo, mouse; settings: 2 g/kg single dose
[4] = Chromosome aberration test
[5] = test system: serotonin in the prefrontal region; assay: Concentration of serotonin in the prefrontal region of rats by microdialysis; type: in vivo, rat
Procedure: The active ingredient of the agents of the present invention has the effect of increasing the concentration of serotonin in the synaptic cleft via inhibitory activity on SERT binding.
Male SD rats which were 10 to 12 weeks of age were used. The concentration of serotonin in the prefrontal region of each rat was measured in accordance with a published document (Kehr J., and Yoshitake T. (2006) Monitoring brain chemical signals by microdialysis. In: Encyclopedia of Sensors, Vol. 6. (Eds. C. A. Grimes, E. C. Dickey and M. V. Pishko) American Scientific Publishers, USA. 287-312) by microdialysis. Specifically, a dialysis probe was implanted in the prefrontal region of each rat under isoflurane anesthesia. Five days after the implantation surgery, artificial cerebrospinal fluid (148 mM of NaCl, 4 mM of KCl, 0.8 mM of MgCl2, 1.4 mM of CaCl2, 1.2 mM of Na2HPO4, 0.3 mM of NaH2PO4, pH 7.2)) was perfused at the flow rate of 1 μl/min under ambulatory conditions without anesthesia. 2,5-Piperazinedione,3,6-bis(phenylmethyl)-,(3S,6S) was suspended in 0.5% sodium carboxymethylcellulose (CMC-Na), and 2 mg/kg, 20 mg/kg, and 200 mg/kg were orally administered for 14 consecutive days. The amount of […] in 15 μl of perfusion liquid collected immediately before the final oral administration and every 30 minutes after the oral administration was quantitatively determined by HPLC-ECD. The results obtained within the period from 1 hour before the oral administration to 3 hours after the oral administration are shown in FIG. 1, where the time immediately before the oral administration of the test sample is set to 0 minute.

[6] = test system: acetylcholine in the hippocampus; assay: Concentration of acetylcholine in the hippocampus of rats by microdialysis; type: in vivo, rat; settings: 200 mg/kg oral once
Text: It is considered that the hippocampus region of the brain, in which a cholinergic neuron is known to be involved, has a function related to learning and memory. Since cholinergic neuron is impaired in degenerative disease with symptoms such as reduced learning and memory, an increase in the concentration of acetylcholine in the hippocampus will improve the symptoms such as reduced learning and memory. The concentration of acetylcholine in the rat hippocampus was increased about 2.5-fold, as measured by microdialysis, by the active ingredient of the agents of the present invention.
A dialysis probe was embedded in the hippocampus of each rat, and measurement was conducted as in Example 1. 2,5-Piperazinedione,3,6-bis(phenylmethyl)-,(3S,6S) was suspended in 0.5% CMC-Na, and 200 mg/kg was orally administered once. The amount of acetylcholine in 15 μl of perfusion liquid collected immediately before the […] oral administration and every 30 minutes after the oral administration was quantitatively determined by HPLC-ECD. The results obtained within the period from 1 hour before the oral administration to 3 hours after the oral administration are shown in FIG. 3, where the time immediately before the oral administration of the test sample is set to 0 minute. […]

AChE = AChE (Homo sapiens, UniProt P22303); assay: AChE inhibitory action with MATP+ substrate; type: biochemical; settings: absorbance at 412 nm, read-out: concentration (IC50) required for 50% inhibition of AChE
Chain of AChE (P22303 32-614): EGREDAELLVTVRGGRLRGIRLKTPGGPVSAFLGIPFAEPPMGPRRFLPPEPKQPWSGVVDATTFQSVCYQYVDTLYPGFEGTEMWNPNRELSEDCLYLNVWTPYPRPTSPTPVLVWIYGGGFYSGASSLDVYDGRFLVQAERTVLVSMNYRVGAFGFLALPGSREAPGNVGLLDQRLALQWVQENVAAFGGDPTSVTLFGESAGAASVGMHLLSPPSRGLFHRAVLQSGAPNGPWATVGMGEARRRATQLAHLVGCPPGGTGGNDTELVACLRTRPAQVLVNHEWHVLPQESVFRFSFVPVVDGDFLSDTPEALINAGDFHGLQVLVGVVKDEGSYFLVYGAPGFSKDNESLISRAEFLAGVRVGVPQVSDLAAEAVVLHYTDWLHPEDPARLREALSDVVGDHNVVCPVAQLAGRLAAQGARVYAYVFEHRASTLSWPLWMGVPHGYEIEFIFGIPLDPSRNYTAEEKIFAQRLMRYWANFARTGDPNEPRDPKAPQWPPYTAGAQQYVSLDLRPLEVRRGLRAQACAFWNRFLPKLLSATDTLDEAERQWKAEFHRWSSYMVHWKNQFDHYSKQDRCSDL
Procedure: (§1) The active ingredient of the agents of the present invention has AChE inhibitory action. AChE inhibitory action may be measured with MATP+ (1,1-dimethyl-4-acetylthiomethylpiperidine), which is a substrate having high selectivity for AChE (Biol Pharma Bull, 33(4), 702-706, 2010). Specifically, AChE is reacted with MATP+, and measurement is conducted using as an indicator a change in absorbance at 412 nm associated with reaction of detection reagent DNTB (5,5′-dithiobis(2-nitrobenzoic acid)).
as §1, with “AChE” for “The active ingredient of the agents of the present invention has AChE inhibitory action. AChE”, “action was” for “action may be”, “AChE was” for “AChE is”, “measurement was” for “measurement is”

rats = type: in vivo; settings: 28-day repeated dose
[7] = test system: loser mice (mice in a depressive state); assay: Morris water maze test with mice in a depressive state (loser mice); type: in vivo, mouse; settings: loser C57BL/6 mice
Procedure: The active ingredient of the agents of the present invention has antidepressive action. Antidepressive action as SSRI may be measured by a method described in a published document (Exp Anim, 59(2), 191-197, 2010). Specifically, first, a Morris water maze test is conducted for 8 days using mice.
The active ingredient of the agents of the present invention has learning motivation improving action. The Morris water maze test has been reported as a method for measuring spatial memory and learning (Learn. Motiv. 12, 239-260 (1981)). In this test, the time required to reach an escape platform (escape latency) is used as a parameter for evaluation, because mice will remember their surrounding scenery and swim in a pool filled with water to try to find and reach the escape platform, which is a goal, with their memory as a guide. Since mice used in a main test are chosen from those which were subjected to the Morris water maze test for 8 days and could not reach the escape platform within […], a reduction in the time required to reach the escape platform can be regarded as an improvement in learning motivation.
Antidepressive action was measured in accordance with a published document (Exp Anim, 59(2), 191-197, 2010). […]

[8] = listed as active ingredient of the agents of the present invention

Q: Which results are given for O=C1N[C@@H](Cc2ccccc2)C(=O)N[C@H]1Cc1ccccc1 [2,5-piperazinedione,3,6-bis(phenylmethyl)-,(3S,6S)]?
A: percentage of correct choices [1]: improved significantly; percentage of correct choices [1, 8]: significantly improved; mutagenicity in mice micronucleus test (mice [2]): no mutagenicity; toxicity in single-dose acute toxicity test (mice [3]): no toxicity; mutagenicity in chromosome aberration test [4]: no mutagenicity; concentration of serotonin in the prefrontal region ([5]; male SD rats, 20 mg/kg oral, 14 consecutive days): increased significantly; concentration of serotonin in the prefrontal region ([5]; male SD rats, 200 mg/kg oral, 14 consecutive days): increased significantly; concentration of serotonin in the prefrontal region ([5]; normal rats, oral for 2 weeks, across doses): increased dose-dependently and significantly; mutagenicity in Ames test (Ames test): no mutagenicity; increase of concentration of acetylcholine in the hippocampus [6]: 2.5 fold; increase of concentration of acetylcholine in the hippocampus [6, 8]: about 2.5 fold; IC50 (AChE): 3.4 µM; no-observable-effect level (rats): ≥ 10 mg/kg/day; escape latency ([7]; oral 0.2 mg/kg or more): reduced significantly; escape latency ([7]; oral 0.02, 0.2, 2 and 20 mg/kg, dose dependence): dose-dependent, significant reduction; also recorded: reduced dose-dependently
